Laboratory results: US20140377219A1, “HIV INHIBITORS” (New york Blood Center, Inc., priority 2011, published 2014)
Structures can show the parent of a compound that is named as a salt. Where two headings read alike, the source gives them in different places.

Key:
MT-2 cells = test: Cytotoxicity in MT-2 cells (XTT); type: cell-based
Method: (§1) Cytotoxicity of small molecules in MT-2 cells and PBMC was measured by the XTT ((sodium 3′-(1-(phenylamino)-carbonyl)-3,4-tetrazolium-bis(4-methoxy-6-nitro)benzene-sulfonic acid hydrate)) method. Briefly, for MT-2 cells, 100 μl of a small molecule at graded concentrations was added to an equal volume of cells (10^5 cells/ml) in 96-well plates followed by incubation at 37° C. for four days, which ran parallel with the neutralization assay in MT-2 (except medium was added instead of virus). In the case of PBMC, 5×10^5 cells/ml was used and the cytotoxicity was measured after seven days. […] The percentage cytotoxicity and the CC50 values were calculated as described above.

[1] = system: laboratory-adapted HIV-1 IIIB strain; test: microbe, parasite or virus in culture; settings: Human immunodeficiency virus 1, IIIB, MT2, read-out: MT-2 Cells IC50 (μM ± SD)
[2] = Cytotoxicity in MT-2 cells (XTT); type: cell-based; settings: human; MT-2 cells, XTT, four days
Method: as §1

[3] = Cytotoxicity in TZM-bl cells (XTT); type: cell-based; settings: human; TZM-bl cells, XTT, 3 days; read-out: TZM-bl cells CC50 (μM ± SD)
Method: (§2) The cytotoxicity of small molecules in TZM-bl cells was measured by a colorimetric method using XTT (sodium 3′-(1-(phenylamino)-carbonyl)-3,4-tetrazolium-bis(4-methoxy-6-nitro)benzenesulfonic acid hydrate), a light yellowish tetrazolium dye. Briefly, 100 μl of a compound at graded concentrations was added to equal volume of cells (10^5/ml) in wells of 96-well plates followed by incubation at 37° C. for 3 days and addition of XTT (PolySciences, Inc., Warrington, Pa.).

[4] = system: laboratory-adapted HIV-1 IIIB strain; settings: read-out: MT-2 Cells IC50 (μM ± SD); multi-cycle assay, MT-2 cells, HIV-1 IIIB
TZM-bl cells = test: Cytotoxicity in TZM-bl cells (XTT); type: cell-based; settings: for % toxicity at that dose (number in parenthesis), TZM-bl cells: at the dose given as CC50 bound
Method: as §2

[5] = MT-2 cells, XTT, four days, read-out: MT-2 Cells CC50
[6] = TZM-bl cells, XTT, 3 days, read-out: TZM-bl cells CC50 (μM ± SD)

SMILES | CC50 (MT-2 cells; [5]) [µM] | IC50 [1] [µM] | CC50 at 4 days [2] [µM] | CC50 at 3 days [3] [µM] | IC50 [4] [µM] | CC50 (TZM-bl cells; [6]) [µM] | further results
CCn1cc(NC(=O)C(=O)Nc2ccc(Cl)cc2)cn1 [Compound 17, N^1-(4-chlorophenyl)-N^2-(1-ethyl-1H-pyrazol-4-yl)oxalamide] | 10.7 ± 1.6 |  |  |  |  |  | melting point: 232 to 233 °C
C[C@@H](NC(=O)C(=O)Nc1ccc(Cl)cc1)[C@H](c1ccccc1)N1CCOCC1 [Compound 19, N^1-(4-chlorophenyl)-N^2-((1S,2R)-1-morpholino-1-phenylpropan-2-yl)oxalamide] |  | > 24.9 |  |  |  |  | 
CCC(CN1CCOCC1)NC(=O)CCC(=O)Nc1ccc(Cl)cc1 (stereo not shown) [Compound 46, N^1-(4-chlorophenyl)-N^4-(1-morpholinobutan-2-yl)succinamide] |  | 33.2 ± 2.2 | 41.9 ± 1.6 | > 109 |  |  | 
O=C(CCC(=O)Nc1ccc(Cl)cc1)NCCCN1CCCC(O)C1 (stereo not shown) [Compound 43, N^1-(4-chlorophenyl)-N^4-(3-(3-hydroxypiperidin-1-yl)propyl)succinamide] |  | ~109 | ~109 | ~82 |  |  | melting point: 122 to 123 °C
Cc1nc(C(NC(=O)C(=O)Nc2ccc(C(F)(F)F)cc2)C2CCCCN2)sc1CCO.Cl.Cl (stereo not shown) [Compound 31, N^1-((5-(2-hydroxyethyl)-4-methylthiazol-2-yl)(piperidin-2-yl)methyl)-N^2-(4-(trifluoromethyl)phenyl)oxalamide.2HCl] | > 39 |  |  |  | 17.4 ± 5.7 | > 74 | % toxicity at that dose (number in parenthesis), TZM-bl cells (TZM-bl cells): 35%
Cc1nc(C(NC(=O)C(=O)Nc2ccc(F)cc2F)C2CCCCN2)sc1CO (stereo not shown) [Compound 21, N^1-(2,4-difluorophenyl)-N^2-((5-(hydroxymethyl)-4-methylthiazol-2-yl)(piperidin-2-yl)methyl)oxalamide.HCl] | > 110 |  |  |  | ~110 | > 87 | 
CC1CCCN(c2ccccc2CNC(=O)CCC(=O)Nc2ccc(Cl)cc2)C1 (stereo not shown) [Compound 45, N^1-(4-chlorophenyl)-N^4-(2-(3-methylpiperidin-1-yl)benzyl)succinamide] |  | > 97 | > 97 | > 97 |  |  | melting point: 162 to 163 °C
Cc1nc(C(NC(=O)C(=O)Nc2ccc(F)cc2F)C2CCCCN2)sc1CCO (stereo not shown) [Compound 32, N^1-(2,4-difluorophenyl)-N^2-((5-(2-hydroxyethyl)-4-methylthiazol-2-yl)(piperidin-2-yl)methyl)oxalamide.HCl] |  |  |  |  | > 105 | > 84 | CC50 (MT-2 cells): > 105 µM
Cc1nc2ncccn2c1CN1CCC(NC(=O)CCC(=O)Nc2ccc(Cl)cc2)CC1 [Compound 50, N^1-(4-chlorophenyl)-N^4-(1-((2-methylimidazo[1,2-a]pyrimidin-3-yl)methyl)piperidin-4-yl)succinamide] |  | > 33 | > 88 | > 88 |  |  | 
Cc1ccc(NC(=O)C(=O)NC(c2nc(C)c(CO)s2)C2CCCCN2)c(F)c1 (stereo not shown) [Compound 26, N^1-(2-fluoro-4-methylphenyl)-N^2-((5-(hydroxymethyl)-4-methylthiazol-2-yl)(piperidin-2-yl)methyl)oxalamide.HCl] | > 109 |  |  |  | ~66 | > 88 | 
Cc1nc(C(NC(=O)C(=O)Nc2ccc(C(F)(F)F)cc2)C2CCCCN2)sc1CO.Cl.Cl (stereo not shown) [Compound 20, N^1-((5-(hydroxymethyl)-4-methylthiazol-2-yl)(piperidin-2-yl)methyl)-N^2-(4-(trifluoromethyl)phenyl)oxalamide.2HCl] | > 75.5 |  |  |  | 4.6 ± 0.3 | > 75.5 | % toxicity at that dose (number in parenthesis), TZM-bl cells (TZM-bl cells): 10%
Cc1ccc(NC(=O)C(=O)NC(c2nc(C)c(CCO)s2)C2CCCCN2)c(F)c1 (stereo not shown) [Compound 37, N^1-(2-fluoro-4-methylphenyl)-N^2-((5-(2-hydroxyethyl)-4-methylthiazol-2-yl)(piperidin-2-yl)methyl)oxalamide.2HCl] | > 78.8 |  |  |  | 45.8 ± 3.5 | > 78.8 | 
Cc1nc(C(NC(=O)CCC(=O)Nc2ccc(Cl)cc2)C2CCCN2)sc1CO (stereo not shown) [Compound 41, N^1-(4-chlorophenyl)-N^4-((5-(hydroxymethyl)-4-methylthiazol-2-yl)(pyrrolidin-2-yl)methyl)succinamide.HCl] |  |  |  |  | > 42 |  | CC50 (MT-2 cells): > 85 µM; CC50 (TZM-bl cells): > 85 µM
Cc1nc(C(NC(=O)C(=O)NC2CCCCCC2)C2CCCCN2)sc1CCO (stereo not shown) [Compound 40, N^1-cycloheptyl-N^2-((5-(2-hydroxyethyl)-4-methylthiazol-2-yl)(piperidin-2-yl)methyl)oxalamide.HCl] | ~60 |  |  |  | 19.6 ± 4 | > 88 | 
CC(=O)c1ccc(NC(=O)C(=O)NC(c2nc(C)c(CO)s2)C2CCCCN2)cc1 (stereo not shown) [Compound 23, N^1-(4-acetylphenyl)-N^2-((5-(hydroxymethyl)-4-methylthiazol-2-yl)(piperidin-2-yl)methyl)oxalamide.HCl] |  |  |  |  | ~107 |  | CC50 (MT-2 cells): > 107 µM; CC50 (TZM-bl cells): > 86 µM
Cc1nc(C(NC(=O)C(=O)Nc2ccc(Cl)cc2)C2CCCNC2)sc1CCO (stereo not shown) [Compound 10, N^1-(4-chlorophenyl)-N^2-((5-(2-hydroxyethyl)-4-methylthiazol-2-yl)(piperidin-3-yl)methyl)oxalamide.2HCl] |  |  |  |  | 13.1 ± 2.4 |  | CC50 (MT-2 cells): > 78.5 µM; CC50 (TZM-bl cells): ~59.4 µM
Cc1nc(C(NC(=O)CCC(=O)Nc2ccc(Cl)cc2)C2CCCCN2)sc1CO.Cl (stereo not shown) [Compound 51, N^1-(4-chlorophenyl)-N^4-((5-(hydroxymethyl)-4-methylthiazol-2-yl)(piperidin-2-yl)methyl)succinamide.HCl] | > 82 |  |  |  | ~40 | > 82 | % toxicity at that dose (number in parenthesis), MT-2 cells (MT-2 cells; at the dose given as CC50 bound): 20%; % toxicity at that dose (number in parenthesis), TZM-bl cells (TZM-bl cells): 0%
O=C(CCC(=O)Nc1ccc(Cl)cc1)NCc1ccc(S(=O)(=O)N2CCOCC2)cc1 [Compound 42, N^1-(4-chlorophenyl)-N^4-(4-(morpholinosulfonyl)benzyl)succinamide] |  | 23.9 ± 1.8 | 21.2 ± 1.5 | ~30 |  |  | melting point: 208 to 209 °C (dec.)
O=C(CCC(=O)Nc1ccc(Cl)cc1)NCCCN1CCC(O)CC1 [Compound 44, N^1-(4-chlorophenyl)-N^4-(3-(4-hydroxypiperidin-1-yl)propyl)succinamide] |  | > 109 | > 109 | ~109 |  |  | melting point: 154 to 155 °C
CC(=O)N1CCCCC1C(NC(=O)C(=O)Nc1ccc(Cl)cc1)c1nc(C)c(CCO)s1 (stereo not shown) [Compound 13, N^1-((1-acetylpiperidin-2-yl)(5-(2-hydroxyethyl)-4-methylthiazol-2-yl)methyl)-N^2-(4-chlorophenyl)oxalamide] |  | > 52 |  |  |  |  | % toxicity at that dose (number in parenthesis), TZM-bl cells (TZM-bl cells): 20%
